Test system: MV-4-11 cells
Assay: Gene expression microarray analysis (Affymetrix PrimeView) and GSEA
Type: cell-based, human
Parameters: RFU PODN (11730768_x_at) / Fold change /veh PODN (11730768_x_at) / RFU LINC00158 (11744669_a_at) / Fold change /veh LINC00158 (11744669_a_at) / RFU DUSP10 (11751237_a_at) / Fold change /veh DUSP10 (11751237_a_at) / RFU ID3 (11757404_x_at) / Fold change /veh ID3 (11757404_x_at) / RFU PLEKHG5 (11737974_s_at) / Fold change /veh PLEKHG5 (11737974_s_at) / RFU LRRC4B (11730491_at) / Fold change /veh LRRC4B (11730491_at) / RFU GIMAP4 (11747438_a_at) / Fold change /veh GIMAP4 (11747438_a_at) / RFU KRT8 (11758183_x_at) / Fold change /veh KRT8 (11758183_x_at) / RFU CNN1 (11734310_a_at) / Fold change /veh CNN1 (11734310_a_at) / RFU VPS37D (11726825_at) / Fold change /veh VPS37D (11726825_at) / RFU C10orf10 (11716522_x_at) / Fold change /veh C10orf10 (11716522_x_at) / RFU KIR2DL2 /// KIR2DL4 /// KIR2DL5A /// KIR2DL5B /// KIR2DS1 /// KIR2DS2 /// KIR2DS3 /// KIR2DS4 /// KIR3DL3 /// KIR3DL3 /// KIR3DS1 (11738374_at) / Fold change /veh KIR2DL2 /// KIR2DL4 /// KIR2DL5A /// KIR2DL5B /// KIR2DS1 /// KIR2DS2 /// KIR2DS3 /// KIR2DS4 /// KIR3DL3 /// KIR3DL3 /// KIR3DS1 (11738374_at) / RFU C1QL1 (11718748_at) / Fold change /veh C1QL1 (11718748_at) / RFU TMPRSS4 (11747572_a_at) / Fold change /veh TMPRSS4 (11747572_a_at) / RFU HAMP (11756126_x_at) / Fold change /veh HAMP (11756126_x_at) / RFU RNFT2 (11725882_a_at) / Fold change /veh RNFT2 (11725882_a_at) / RFU NR4A2 (11747474_a_at) / Fold change /veh NR4A2 (11747474_a_at) / RFU ABCC12 (11746883_a_at) / Fold change /veh ABCC12 (11746883_a_at) / RFU TMEM136 (11760407_x_at) / Fold change /veh TMEM136 (11760407_x_at) / RFU CLDN22 /// WWC2 (11732394_at) / Fold change /veh CLDN22 /// WWC2 (11732394_at) / RFU HLA-DPB1 (11760878_x_at) / Fold change /veh HLA-DPB1 (11760878_x_at) / RFU SPINT1 (11716480_a_at) / Fold change /veh SPINT1 (11716480_a_at) / RFU GAP43 (11754022_s_at) / Fold change /veh GAP43 (11754022_s_at) / RFU A4GNT (11735810_at) / Fold change /veh A4GNT (11735810_at) / RFU PRB3 (11715151_x_at) / Fold change /veh PRB3 (11715151_x_at) / RFU TUBB4B (11761932_at) / Fold change /veh TUBB4B (11761932_at) / RFU CAPN14 (11732068_a_at) / Fold change /veh CAPN14 (11732068_a_at) / RFU TMCC2 (11721928_a_at) / Fold change /veh TMCC2 (11721928_a_at) / RFU IRGQ (11745062_a_at) / Fold change /veh IRGQ (11745062_a_at) / RFU FAM174B (11720279_a_at) / Fold change /veh FAM174B (11720279_a_at) / RFU TMPRSS4 (11748680_a_at) / Fold change /veh TMPRSS4 (11748680_a_at) / RFU FAM212B (11763350_a_at) / Fold change /veh FAM212B (11763350_a_at) / RFU PLEKHG5 (11743358_a_at) / Fold change /veh PLEKHG5 (11743358_a_at) / RFU ZSCAN30 (11745921_a_at) / Fold change /veh ZSCAN30 (11745921_a_at) / RFU CMKLR1 (11741424_a_at) / Fold change /veh CMKLR1 (11741424_a_at) / RFU LOC101060620 /// MAPK8IP1 (11723275_at) / Fold change /veh LOC101060620 /// MAPK8IP1 (11723275_at) / RFU SPTSSB (11747773_x_at) / Fold change /veh SPTSSB (11747773_x_at) / RFU PRSS12 (11739890_at) / Fold change /veh PRSS12 (11739890_at) / RFU BIN1 (11741810_x_at) / Fold change /veh BIN1 (11741810_x_at) / RFU WNT11 (11732464_a_at) / Fold change /veh WNT11 (11732464_a_at) / RFU C10orf10 (11716521_a_at) / Fold change /veh C10orf10 (11716521_a_at) / RFU C5orf56 (11738089_at) / Fold change /veh C5orf56 (11738089_at) / RFU CYB561 (11721691_x_at) / Fold change /veh CYB561 (11721691_x_at) / RFU ANKRD19P (11752326_a_at) / Fold change /veh ANKRD19P (11752326_a_at) / RFU OR2T12 /// OR2T33 /// OR2T8 (11738714_s_at) / Fold change /veh OR2T12 /// OR2T33 /// OR2T8 (11738714_s_at) / RFU VCAN (11748164_a_at) / Fold change /veh VCAN (11748164_a_at) / RFU JSRP1 (11732532_at) / Fold change /veh JSRP1 (11732532_at) / RFU KRTAP10-11 (11738290_x_at) / Fold change /veh KRTAP10-11 (11738290_x_at) / RFU MYO3A (11730013_a_at) / Fold change /veh MYO3A (11730013_a_at) / RFU EBF3 (11725865_a_at) / Fold change /veh EBF3 (11725865_a_at) / RFU CAMK2N1 (11719241_x_at) / Fold change /veh CAMK2N1 (11719241_x_at) / RFU C5orf56 (11738088_a_at) / Fold change /veh C5orf56 (11738088_a_at) / RFU OLFML3 (11715873_a_at) / Fold change /veh OLFML3 (11715873_a_at) / RFU LOC100653217 /// NTM (11731650_a_at) / Fold change /veh LOC100653217 /// NTM (11731650_a_at) / RFU MAPK11 (11762145_a_at) / Fold change /veh MAPK11 (11762145_a_at) / RFU FIZ1 (11724087_x_at) / Fold change /veh FIZ1 (11724087_x_at) / RFU OASL (11726364_x_at) / Fold change /veh OASL (11726364_x_at) / RFU SOX15 (11748057_x_at) / Fold change /veh SOX15 (11748057_x_at) / RFU CD79A (11719716_a_at) / Fold change /veh CD79A (11719716_a_at) / RFU HIST1H1D (11736915_at) / Fold change /veh HIST1H1D (11736915_at) / RFU CASKIN2 (11723855_a_at) / Fold change /veh CASKIN2 (11723855_a_at) / RFU LOC730098 (11760151_x_at) / Fold change /veh LOC730098 (11760151_x_at) / RFU OR4N2 (11742367_at) / Fold change /veh OR4N2 (11742367_at) / RFU PRRT2 (11749266_a_at) / Fold change /veh PRRT2 (11749266_a_at) / RFU SNX32 (11753110_a_at) / Fold change /veh SNX32 (11753110_a_at) / RFU CDHR5 (11726645_a_at) / Fold change /veh CDHR5 (11726645_a_at) / RFU RCAN1 (11760418_a_at) / Fold change /veh RCAN1 (11760418_a_at) / RFU FAM167A (11723789_a_at) / Fold change /veh FAM167A (11723789_a_at) / RFU FAM26E (11764081_at) / Fold change /veh FAM26E (11764081_at) / RFU ISYNA1 (11749810_s_at) / Fold change /veh ISYNA1 (11749810_s_at) / RFU ACY1 (11761880_at) / Fold change /veh ACY1 (11761880_at) / RFU 11764098_at / Fold change /veh 11764098_at / RFU SAMD14 (11745864_x_at) / Fold change /veh SAMD14 (11745864_x_at) / RFU NPB (11741838_a_at) / Fold change /veh NPB (11741838_a_at) / RFU TMPRSS6 (11731388_a_at) / Fold change /veh TMPRSS6 (11731388_a_at) / RFU KRTAP10-2 (11738614_at) / Fold change /veh KRTAP10-2 (11738614_at) / RFU ARHGAP8 /// PRR5-ARHGAP8 (11727945_x_at) / Fold change /veh ARHGAP8 /// PRR5-ARHGAP8 (11727945_x_at) / RFU KRTAP5-7 /// NADSYN1 (11734609_at) / Fold change /veh KRTAP5-7 /// NADSYN1 (11734609_at) / RFU RASL12 (11751679_a_at) / Fold change /veh RASL12 (11751679_a_at) / RFU CDKN2B (11736163_a_at) / Fold change /veh CDKN2B (11736163_a_at) / RFU PRF1 (11729649_at) / Fold change /veh PRF1 (11729649_at) / RFU, ZNF638 /// ZNF638-IT1 / Fold change vs veh, ZNF638 /// ZNF638-IT1 / RFU, PANK3 / Fold change vs veh, PANK3 / RFU, SH3YL1 / Fold change vs veh, SH3YL1 / RFU, ZEB2 / Fold change vs veh, ZEB2 / RFU, NRIP1 / Fold change vs veh, NRIP1 / RFU, PTTG1IP / Fold change vs veh, PTTG1IP / RFU, CAPN2 / Fold change vs veh, CAPN2 / RFU, MED14 / Fold change vs veh, MED14 / RFU, SNORA58 / Fold change vs veh, SNORA58 / RFU, C1orf63 / Fold change vs veh, C1orf63 / RFU, LRRFIP1 / Fold change vs veh, LRRFIP1 / RFU, NDUFAF7 / Fold change vs veh, NDUFAF7 / RFU, SLC12A2 / Fold change vs veh, SLC12A2 / RFU, IBTK / Fold change vs veh, IBTK / RFU, ESF1 / Fold change vs veh, ESF1 / Fold change vs veh, TMEM50B / RFU, TAOK1 / Fold change vs veh, TAOK1 / RFU, ACBD3 / Fold change vs veh, ACBD3 / RFU, TMA16 / Fold change vs veh, TMA16 / RFU, RWDD3 / Fold change vs veh, RWDD3 / RFU, BCAT1 / Fold change vs veh, BCAT1 / RFU, EDEM3 / Fold change vs veh, EDEM3 / RFU, TMEM33 / Fold change vs veh, TMEM33 / RFU, WDR75 / Fold change vs veh, WDR75 / RFU, AHCTF1 / Fold change vs veh, AHCTF1 / RFU, TFRC / Fold change vs veh, TFRC / RFU, ZDHHC17 / Fold change vs veh, ZDHHC17 / RFU, NOM1 / Fold change vs veh, NOM1 / RFU, ARL8B / Fold change vs veh, ARL8B / RFU, ZBTB11 / Fold change vs veh, ZBTB11 / RFU, TAMM41 / Fold change vs veh, TAMM41 / RFU, KIAA1704 /// LOC100996395 / Fold change vs veh, KIAA1704 /// LOC100996395 / RFU, ING1 / Fold change vs veh, ING1 / RFU, TRMT61B / Fold change vs veh, TRMT61B / RFU, FUBP3 / Fold change vs veh, FUBP3 / RFU, TP53 / Fold change vs veh, TP53 / RFU, TNKS2 / Fold change vs veh, TNKS2 / RFU, ZFP14 / Fold change vs veh, ZFP14 / RFU, ACTR2 / Fold change vs veh, ACTR2 / RFU, PPP3R1 / Fold change vs veh, PPP3R1 / RFU, PIK3R1 / Fold change vs veh, PIK3R1 / RFU, HNRNPA1 / Fold change vs veh, HNRNPA1 / RFU, RNF170 / Fold change vs veh, RNF170 / RFU, ZNF28 / Fold change vs veh, ZNF28 / RFU, RNGTT / Fold change vs veh, RNGTT / RFU, OGT / Fold change vs veh, OGT / RFU, BRD1 / Fold change vs veh, BRD1 / RFU, MARS / Fold change vs veh, MARS / RFU, ZNF655 / Fold change vs veh, ZNF655 / RFU, FAHD1 / Fold change vs veh, FAHD1 / RFU, BDP1 / Fold change vs veh, BDP1 / RFU, LRRCC1 / Fold change vs veh, LRRCC1 / RFU, ARID1A / Fold change vs veh, ARID1A / RFU, ZNF146 / Fold change vs veh, ZNF146 / RFU, ZNF330 / Fold change vs veh, ZNF330 / RFU, GPN3 / Fold change vs veh, GPN3 / RFU, C9orf123 / Fold change vs veh, C9orf123 / RFU, N4BP2L2 / Fold change vs veh, N4BP2L2 / RFU, ARFIP1 / Fold change vs veh, ARFIP1 / RFU, FAM179B / Fold change vs veh, FAM179B / RFU, BCL10 / Fold change vs veh, BCL10 / RFU, UHRF1BP1L / Fold change vs veh, UHRF1BP1L / RFU, BET1 / Fold change vs veh, BET1 / RFU, CNOT2 / Fold change vs veh, CNOT2 / RFU, ZNF268 / Fold change vs veh, ZNF268 / Fold change vs veh, ZNF507 / RFU, DGCR2 / Fold change vs veh, DGCR2 / RFU, WDSUB1 / Fold change vs veh, WDSUB1 / Fold change vs veh, HSP90B1 /// MIR3652 / RFU, ADSS / Fold change vs veh, ADSS / RFU, GK / Fold change vs veh, GK / RFU, ZNF148 / Fold change vs veh, ZNF148 / RFU, TAF9 / Fold change vs veh, TAF9 / RFU, SLC1A5 / Fold change vs veh, SLC1A5 / RFU, SLMO2 / Fold change vs veh, SLMO2 / RFU, ABCC4 / Fold change vs veh, ABCC4 / RFU, LOC101060439 /// RAP1B / Fold change vs veh, LOC101060439 /// RAP1B / RFU, RFX7 / Fold change vs veh, RFX7 / RFU, GTPBP10 / Fold change vs veh, GTPBP10 / RFU, CNEP1R1 / Fold change vs veh, CNEP1R1 / RFU, BIVM-ERCC5 /// ERCC5 / Fold change vs veh, BIVM-ERCC5 /// ERCC5 / RFU, ILF3 / Fold change vs veh, ILF3 / RFU 11762660_at / Fold change /veh 11762660_at / RFU VCAN (11757783_s_at) / Fold change /veh VCAN (11757783_s_at) / RFU DDX43 (11728927_at) / Fold change /veh DDX43 (11728927_at) / RFU KRT8 (11758188_x_at) / Fold change /veh KRT8 (11758188_x_at) / RFU NKD1 (11759106_at) / Fold change /veh NKD1 (11759106_at) / RFU SRD5A1 (11742802_a_at) / Fold change /veh SRD5A1 (11742802_a_at) / RFU TPSAB1 /// TPSB2 (11721975_s_at) / Fold change /veh TPSAB1 /// TPSB2 (11721975_s_at) / RFU GSTM3 (11746129_a_at) / Fold change /veh GSTM3 (11746129_a_at) / RFU IL23R (11737362_x_at) / Fold change /veh IL23R (11737362_x_at) / RFU TMEM51 (11727254_a_at) / Fold change /veh TMEM51 (11727254_a_at) / RFU PIWIL2 (11732686_x_at) / Fold change /veh PIWIL2 (11732686_x_at) / RFU ORM1 (11744905_x_at) / Fold change /veh ORM1 (11744905_x_at) / RFU CCDC152 (11743942_at) / Fold change /veh CCDC152 (11743942_at) / RFU ECM1 (11717891_a_at) / Fold change /veh ECM1 (11717891_a_at) / RFU IL23R (11748794_a_at) / Fold change /veh IL23R (11748794_a_at) / RFU TNFAIP8L3 (11732012_x_at) / Fold change /veh TNFAIP8L3 (11732012_x_at) / RFU MBOAT4 (11741988_at) / Fold change /veh MBOAT4 (11741988_at) / RFU 11764193_at / Fold change /veh 11764193_at / RFU TMEM53 (11763286_at) / Fold change /veh TMEM53 (11763286_at) / RFU MAGEB2 (11727129_at) / Fold change /veh MAGEB2 (11727129_at) / RFU TMEM200A (11744735_a_at) / Fold change /veh TMEM200A (11744735_a_at) / RFU CCDC152 (11751479_a_at) / Fold change /veh CCDC152 (11751479_a_at) / RFU FAM211A (11726209_a_at) / Fold change /veh FAM211A (11726209_a_at) / RFU RGS16 (11746705_a_at) / Fold change /veh RGS16 (11746705_a_at) / RFU VCAN (11755009_s_at) / Fold change /veh VCAN (11755009_s_at) / RFU RHOB (11743442_s_at) / Fold change /veh RHOB (11743442_s_at) / RFU RGS16 (11720943_a_at) / Fold change /veh RGS16 (11720943_a_at) / RFU RGS16 (11720944_at) / Fold change /veh RGS16 (11720944_at) / RFU, VPS4B / Fold change vs veh, VPS4B / RFU, CREB1 / Fold change vs veh, CREB1 / RFU, DNAJC13 / Fold change vs veh, DNAJC13 / RFU, GNAQ / Fold change vs veh, GNAQ / RFU, CDK5R1 / Fold change vs veh, CDK5R1 / RFU, ZRANB3 / Fold change vs veh, ZRANB3 / RFU, CUL4A / Fold change vs veh, CUL4A / RFU, CCNY / Fold change vs veh, CCNY / RFU, UFL1 / Fold change vs veh, UFL1 / RFU, COG3 / Fold change vs veh, COG3 / RFU, DIAPH2 / Fold change vs veh, DIAPH2 / RFU, SKA2 / Fold change vs veh, SKA2 / RFU, AFF3 / Fold change vs veh, AFF3 / RFU, LMF1 / Fold change vs veh, LMF1 / RFU, IPO11 / Fold change vs veh, IPO11 / RFU, DFFB / Fold change vs veh, DFFB / RFU, FOXP1 / Fold change vs veh, FOXP1 / RFU, CARD8 / Fold change vs veh, CARD8 / RFU, STRN3 / Fold change vs veh, STRN3 / RFU, ADK / Fold change vs veh, ADK / RFU, RASSF2 / Fold change vs veh, RASSF2 / RFU, WIPF1 / Fold change vs veh, WIPF1 / RFU, LARP1B / Fold change vs veh, LARP1B / RFU, RASA1 / Fold change vs veh, RASA1 / RFU, RB1 / Fold change vs veh, RB1 / RFU, PPFIA1 / Fold change vs veh, PPFIA1 / RFU, MAT2A / Fold change vs veh, MAT2A / RFU, CCT5 / Fold change vs veh, CCT5 / RFU, WDR92 / Fold change vs veh, WDR92 / RFU, CUX1 / Fold change vs veh, CUX1 / RFU, TTC7A / Fold change vs veh, TTC7A / RFU, TMEM135 / Fold change vs veh, TMEM135 / RFU, DEPTOR / Fold change vs veh, DEPTOR / RFU, CPM / Fold change vs veh, CPM / RFU, DNAJB6 / Fold change vs veh, DNAJB6 / RFU, CACNA2D3 / Fold change vs veh, CACNA2D3 / RFU, DTX4 / Fold change vs veh, DTX4 / RFU, TFCP2 / Fold change vs veh, TFCP2 / RFU, GMCL1 /// GMCL1P1 / Fold change vs veh, GMCL1 /// GMCL1P1 / RFU, AEBP2 / Fold change vs veh, AEBP2 / RFU, SNHG1 /// SNORD22 /// SNORD25 /// SNORD26 /// SNORD27 /// SNORD28 /// SNORD29 /// SNORD31 / Fold change vs veh, SNHG1 /// SNORD22 /// SNORD25 /// SNORD26 /// SNORD27 /// SNORD28 /// SNORD29 /// SNORD31 / Fold change (Aza/veh), C12orf56 (ProbeSet 11735607_a_at) / Fold change (ACY-1035/veh), C12orf56 (ProbeSet 11735607_a_at) / Fold change (Aza/veh), FGFR1OP (ProbeSet 11751329_s_at) / Fold change (ACY-1035/veh), FGFR1OP (ProbeSet 11751329_s_at) / Fold change (Aza/veh), VPS36 (ProbeSet 11739960_a_at) / Fold change (ACY-1035/veh), VPS36 (ProbeSet 11739960_a_at) / RFU SYPL1 (11715823_x_at) / Fold change /veh SYPL1 (11715823_x_at) / RFU IGFBP7 (11715501_s_at) / Fold change /veh IGFBP7 (11715501_s_at) / RFU REEP3 (11722064_at) / Fold change /veh REEP3 (11722064_at) / RFU IGLL1 (11728026_x_at) / Fold change /veh IGLL1 (11728026_x_at): dose or concentration left out as unconfirmed
Conditions: ProbeSet 11762504_a_at; LIST D

Q: `Nc1ncn([C@@H]2O[C@H](CO)[C@@H](O)[C@H]2O)c(=O)n1` [azacitidine] was tested. Which “RFU, ZRANB3” value did it give?
A: 79.10 RFU

From article PMC5218480 (PLoS ONE, 2017)
